Measured values: US8729269B2, “Substituted piperidino phenyloxazolidinones having antimicrobial activity with improved in vivo efficacy” (Wockhardt Limited, priority 2003, dated 2014)
Converted amounts (≈) assume the structure as drawn.

What was measured:
[1] = test system: Methicilin resistant Staphylococcus aureus 32 (MRSA 32); assay: Minimum Inhibitory Concentration (MIC) determination, agar dilution; format: cell-based; conditions: Mueller Hinton agar, 24 hrs at 35° C.
Experimental: (§1) Overnight grown cultures of Methicilin resistant Staphylococcus aureus 32 (MRSA 32), Methicilin resistant Staphylococcus epidermidis 118 (MRSE 118), Vancomycin resistant enterococci 303 (VRE 303) in Tryptic Soya broth were diluted in Mueller Hinton Broth to give optical density matching with MacFarland tube 0.5 standard. Cultures were further diluted 1:10 in Mueller Hinton broth. Using Denley's multipoint inoculator, 10^4 cells were deposited on Mueller Hinton agar (Difco) containing range of 2 fold dilutions of test compounds. These plates were incubated for 24 hrs at 35° C. and MIC results recorded. MIC is defined as minimum drug concentration that inhibits test organisms. For determining MIC of test compounds against Streptococcus pneumoniae 49619 (SPN 49619) and Streptococcus pyogenes 801 (SPY 801), Mueller Hinton agar containing 5% sheep blood was employed.

[2] = test system: Methicilin resistant Staphylococcus epidermidis 118 (MRSE 118); assay: as above; format: cell-based; conditions: Mueller Hinton agar, 24 hrs at 35° C.
Experimental: as §1

[3] = test system: Vancomycin resistant enterococci 303 (VRE 303); assay: as above; format: cell-based; conditions: Enterococcus, Mueller Hinton agar, 24 hrs at 35° C.
Experimental: as §1

[4] = test system: Streptococcus pneumoniae 49619 (SPN 49619); assay: Minimum Inhibitory Concentration (MIC) determination, agar with 5% sheep blood; format: cell-based; conditions: Mueller Hinton agar containing 5% sheep blood
Experimental: as §1

[5] = test system: Streptococcus pyogenes 801 (SPY 801); assay: as above; format: cell-based; conditions: Mueller Hinton agar containing 5% sheep blood
Experimental: as §1

[6] = test system: methicillin resistant Staphylococcus aureus strain MRSA 32; assay: Murine Assay Procedure (in vivo efficacy, MRSA 32 infection); conditions: swiss mice infected intraperitoneally with MRSA 32, oral gavage 1 h after infection, repeat dose 3 hrs later, percentage survival on Day 7
Experimental: Oxazolidinone new chemical entities (NCEs) were evaluated for their in vivo efficacy in a murine infection caused by multi-drug resistant, methicillin resistant Staphylococcus aureus strain, referred to as MRSA 32, a clinical isolate obtained from a hospitalized patient. The procedure used for the murine assay is as follows:
Four weeks old swiss mice of 18-22 gm body weight were infected with MRSA 32 strain suspended in 5% Hog gastric mucin. The infecting dose of bacteria was set at 1-2×10^8 CFU/animal. The infecting dose was administered in 0.5 ml volume injected into peritonial cavity of mice. The treatment with oxazolidinone NCEs was started one hour after infection by administering 100-200 μl of the suspensions of oxazolidinone compounds in 5% Tween 80 by oral gavage. A repeat dose was similarly administered 3 hrs later. Each oxazolidinone NCE was tested at 2-3 different dosages in the range of 2.5 mg/kg to 20 mg/kg. In each dose group 6 mice were included. As an infection control group 12 mice were infected with MRSA 32 strain without giving any treatment. For compounds affording protection of MRSA infected mice, ED50 dosages were calculated on the basis of percentage survival on Day 7 after infection.

| SMILES | MIC [1] | MIC [2] | MIC [3] | MIC [4] | MIC [5] | ED50 [6] |
| --- | --- | --- | --- | --- | --- | --- |
| CC(=O)NC[C@H]1CN(c2ccc(N3CCC(F)(CNS(C)(=O)=O)CC3)c(F)c2)C(=O)O1 [Example 7, (S)—N-{3-[4-(4-Fluoro-4-methanesulfonamidomethylpiperidin-1-yl)-3-fluorophenyl]-2-oxo-oxazolidin-5-ylmethyl}-acetamide] | 1 µg/mL (≈ 2.17 µM) | 0.5 µg/mL (≈ 1.09 µM) | 2 µg/mL (≈ 4.34 µM) | 1 µg/mL (≈ 2.17 µM) | 1 µg/mL (≈ 2.17 µM) | 5 mg/kg |
| CC(=O)NC[C@H]1CN(c2ccc(N3CCC(F)(CN=[N+]=[N-])CC3)c(F)c2)C(=O)O1 [Example 4, (S)—N-{3-[4-(4-Fluoro-4-azidomethylpiperidin-1-yl)-3-fluorophenyl]-2-oxo-oxazolidin-5-ylmethyl}-acetamide] | 2 µg/mL (≈ 4.9 µM) | 1 µg/mL (≈ 2.45 µM) | 2 µg/mL (≈ 4.9 µM) | 2 µg/mL (≈ 4.9 µM) | 2 µg/mL (≈ 4.9 µM) | 10 mg/kg |
| CS(=O)(=O)OC[C@H]1CN(c2cc(F)c(N3CCC(=O)CC3)c(F)c2)C(=O)O1 [Example 169, (R)—N-{3-[4-(4-oxo-piperidin-1-yl)-3,5-difluorophenyl]-2-oxo-oxazolidin-5-ylmethyl}-methanesulfonate] | 0.5 µg/mL (≈ 1.24 µM) | 0.25 µg/mL (≈ 0.618 µM) | 1 µg/mL (≈ 2.47 µM) | 0.5 µg/mL (≈ 1.24 µM) | 2 µg/mL (≈ 4.95 µM) | 10 mg/kg |
| COCC1(F)CCN(c2ccc(N3C[C@H](CNC(C)=O)OC3=O)cc2F)CC1 [Example 10, (S)—N-{3-[4-(4-Fluoro-4-methoxymethylpiperidin-1-yl)-3-fluorophenyl]-2-oxo-oxazolidin-5-ylmethyl}-acetamide] | 2 µg/mL (≈ 5.03 µM) | 1 µg/mL (≈ 2.52 µM) | 1 µg/mL (≈ 2.52 µM) | 2 µg/mL (≈ 5.03 µM) | 2 µg/mL (≈ 5.03 µM) | 5 mg/kg |
| CC(=O)NC[C@H]1CN(c2ccc(N3CCC(C)(O)CC3)c(F)c2)C(=O)O1 [Example 17, (S)—N-{3-[4-(4-Methyl-4-hydroxypiperidin-1-yl)-3-fluorophenyl]-2-oxo-oxazolidin-5-ylmethyl}-acetamide] | 8 µg/mL (≈ 21.9 µM) | > 32 µg/mL | > 32 µg/mL | > 16 µg/mL | > 16 µg/mL | 10 mg/kg |
